# Assay results published in paper PMC9143591, “The Chemical Constituents of Diaphragma Juglandis Fructus and Their Inhibitory Effect on α-Glucosidase Activity” (Molecules, 2022).
# Target: α-glucosidase (Saccharomyces cerevisiae, UniProt P53341)
# Assay: α-Glucosidase inhibitory assay
# Assay type: biochemical
# Details: in vitro
# Experimental: Alpha-glucosidase is an enzyme that hydrolyzes the carbohydrates to monosaccharides in the final step of carbohydrate digestion. […] In order to search for bioactive substances to treat type 2 diabetes using Diaphragma juglandis Fructus, all isolated constituents (1–37) were assessed for antidiabetic activity using an in vitro α-glycosidase inhibition assay.
# The α-glucosidase was obtained from Sigma-Aldrich (Shanghai) Trading Co., Ltd (Shanghai, China). p-nitrophenyl-α-D-glucopyranoside was obtained from Macklin Co., Ltd. (Lot# C12592180, Shanghai, China).
# The α-glucosidase inhibition assay was performed according to a previous report with a slight difference: the concentration of α-glucosidase was diluted to 0.15 unit/mL. The volume of α-glucosidase added to the 96-well plate was 10 μL.
# Sequence of α-glucosidase (P53341 whole entry): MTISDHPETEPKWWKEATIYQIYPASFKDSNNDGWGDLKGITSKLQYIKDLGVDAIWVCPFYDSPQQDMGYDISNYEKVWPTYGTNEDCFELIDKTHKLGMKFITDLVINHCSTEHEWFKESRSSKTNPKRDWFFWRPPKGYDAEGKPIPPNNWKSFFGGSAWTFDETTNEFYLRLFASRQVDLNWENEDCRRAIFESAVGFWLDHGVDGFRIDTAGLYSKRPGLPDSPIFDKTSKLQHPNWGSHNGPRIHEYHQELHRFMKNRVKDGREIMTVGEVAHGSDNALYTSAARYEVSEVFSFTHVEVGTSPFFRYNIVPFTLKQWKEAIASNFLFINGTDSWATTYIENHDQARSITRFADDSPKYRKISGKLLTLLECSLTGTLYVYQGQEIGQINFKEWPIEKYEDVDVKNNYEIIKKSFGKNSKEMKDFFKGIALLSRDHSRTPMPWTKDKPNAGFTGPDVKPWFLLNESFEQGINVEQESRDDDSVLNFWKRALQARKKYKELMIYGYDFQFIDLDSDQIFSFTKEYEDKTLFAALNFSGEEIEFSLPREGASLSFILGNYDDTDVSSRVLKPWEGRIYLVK
row,SMILES,α-glucosidase inhibition activity (in words)
1,"O=C1c2c(O)cc(O)cc2OC(c2ccc(O)c(O)c2)C1O (stereo not shown) [Compound 13, taxifolin]",quite potent
2,"Oc1cc(O)c2c(c1)O[C@@H](c1ccc(O)c(O)c1)[C@H](O)C2 [Compound 16, (+)-catechin]",quite potent
3,"O=c1c(O)c(-c2ccc(O)c(O)c2)oc2cc(O)cc(O)c12 [Compound 21, quercetin]",quite potent
4,"O=c1cc(-c2ccc(O)c(O)c2)oc2cc(O)cc(O)c12 [Compound 28, luteolin]",quite potent
